Laboratory results reported in ChEMBL document CHEMBL1159229, “In vitro anticomplementary activity of constituents from Morinda morindoides” (J Nat Prod, 1995).

Columns and labels:
[1] = species on record: Homo sapiens; assay: Inhibition of human plasma alternative complement system assessed as hemolysis of non-sensitized rabbit erythrocytes at 1000 uM; format: cell-free
[2] = species on record: Cavia porcellus; assay: Inhibition of guinea pig classical complement system assessed as hemolysis of sensitized sheep erythrocytes at 1000 uM
[3] = species on record: Homo sapiens; assay: Activation of human plasma alternative complement system assessed as hemolysis of non-sensitized rabbit erythrocytes at 1000 uM; format: cell-free
[4] = species on record: Cavia porcellus; assay: Inhibition of guinea pig classical complement system assessed as hemolysis of sensitized sheep erythrocytes
[5] = species on record: Cavia porcellus; assay: Activation of guinea pig classical complement system assessed as hemolysis of sensitized sheep erythrocytes at 1000 uM

SMILES | inhibition [1] | inhibition [2] | Activity [3] | Activity [4] | Activity [5]
O=c1cc(-c2ccc(O)c(O)c2)oc2cc(O[C@@H]3O[C@H](CO)[C@@H](O)[C@H](O)[C@H]3O)cc(O)c12 | 2% | 25.2% | – | – | –
COc1cc(O)c2c(=O)c(O)c(-c3ccc(OC)c(O)c3)oc2c1 | – | 24.3% | 13.7% | – | –
O=c1c(O)c(-c2ccc(O)c(O)c2)oc2cc(O)cc(O)c12 | 24% | 52.5% | – | Dose-dependent effect | –
COc1cc(-c2cc(=O)c3c(O)cc(O[C@@H]4O[C@H](CO)[C@@H](O)[C@H](O)[C@H]4O[C@@H]4O[C@@H](C)[C@H](O)[C@@H](O)[C@H]4O)cc3o2)ccc1O | – | – | 11.2% | – | 4.6%
O=c1cc(-c2ccc(O)cc2)oc2cc(O[C@@H]3O[C@H](CO)[C@@H](O)[C@H](O)[C@H]3O)cc(O)c12 | – | – | 2.4% | – | 2.34%
COc1cc(-c2cc(=O)c3c(O)cc(O)cc3o2)ccc1O | – | – | 59% | – | 9%
C[C@@H]1O[C@@H](Oc2c(-c3ccc(O)cc3)oc3cc(O)cc(O)c3c2=O)[C@H](O)[C@H](O)[C@H]1O | 6.2% | 5.6% | – | – | –
C[C@@H]1O[C@@H](OC[C@H]2O[C@@H](Oc3c(-c4ccc(O)cc4)oc4cc(O)cc(O)c4c3=O)[C@H](O)[C@@H](O)[C@@H]2O)[C@H](O)[C@H](O)[C@H]1O | – | 19.2% | 18.4% | – | –
C[C@@H]1O[C@@H](OC[C@H]2O[C@@H](Oc3c(-c4ccc(O)c(O)c4)oc4cc(O)cc(O)c4c3=O)[C@H](O)[C@@H](O)[C@@H]2O)[C@H](O)[C@H](O)[C@H]1O | 18% | 54.4% | – | Dose-dependent effect | –
C[C@@H]1O[C@@H](Oc2c(-c3ccc(O)c(O)c3)oc3cc(O)cc(O)c3c2=O)[C@H](O)[C@H](O)[C@H]1O | 13.5% | 56.2% | – | Dose-dependent effect | –
O=C(/C=C/c1ccc(O)c(O)c1)O[C@H](Cc1ccc(O)c(O)c1)C(=O)O | 67.8% | 93.3% | – | Dose-dependent effect | –
